# Molecular target: human Cav2.2 (Homo sapiens, UniProt Q00975)
# Assay: Assessment of calcium channel activity using FLIPR (Ca2+ influx in IMR32 cells)
# Format: cell-based
# Details: not given
# Summary of the method: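 IC50 values derive from nonlinear sigmoidal fitting of percent inhibition, relative to inhibitor-free activity, of Ca2+ influx read by FLIPR. Cells were IMR32 human neuroblastoma, plated at 1−1.2×10^5 per well and grown 48 h at 37 °C.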
# human Cav2.2, sequence (Q00975 whole entry): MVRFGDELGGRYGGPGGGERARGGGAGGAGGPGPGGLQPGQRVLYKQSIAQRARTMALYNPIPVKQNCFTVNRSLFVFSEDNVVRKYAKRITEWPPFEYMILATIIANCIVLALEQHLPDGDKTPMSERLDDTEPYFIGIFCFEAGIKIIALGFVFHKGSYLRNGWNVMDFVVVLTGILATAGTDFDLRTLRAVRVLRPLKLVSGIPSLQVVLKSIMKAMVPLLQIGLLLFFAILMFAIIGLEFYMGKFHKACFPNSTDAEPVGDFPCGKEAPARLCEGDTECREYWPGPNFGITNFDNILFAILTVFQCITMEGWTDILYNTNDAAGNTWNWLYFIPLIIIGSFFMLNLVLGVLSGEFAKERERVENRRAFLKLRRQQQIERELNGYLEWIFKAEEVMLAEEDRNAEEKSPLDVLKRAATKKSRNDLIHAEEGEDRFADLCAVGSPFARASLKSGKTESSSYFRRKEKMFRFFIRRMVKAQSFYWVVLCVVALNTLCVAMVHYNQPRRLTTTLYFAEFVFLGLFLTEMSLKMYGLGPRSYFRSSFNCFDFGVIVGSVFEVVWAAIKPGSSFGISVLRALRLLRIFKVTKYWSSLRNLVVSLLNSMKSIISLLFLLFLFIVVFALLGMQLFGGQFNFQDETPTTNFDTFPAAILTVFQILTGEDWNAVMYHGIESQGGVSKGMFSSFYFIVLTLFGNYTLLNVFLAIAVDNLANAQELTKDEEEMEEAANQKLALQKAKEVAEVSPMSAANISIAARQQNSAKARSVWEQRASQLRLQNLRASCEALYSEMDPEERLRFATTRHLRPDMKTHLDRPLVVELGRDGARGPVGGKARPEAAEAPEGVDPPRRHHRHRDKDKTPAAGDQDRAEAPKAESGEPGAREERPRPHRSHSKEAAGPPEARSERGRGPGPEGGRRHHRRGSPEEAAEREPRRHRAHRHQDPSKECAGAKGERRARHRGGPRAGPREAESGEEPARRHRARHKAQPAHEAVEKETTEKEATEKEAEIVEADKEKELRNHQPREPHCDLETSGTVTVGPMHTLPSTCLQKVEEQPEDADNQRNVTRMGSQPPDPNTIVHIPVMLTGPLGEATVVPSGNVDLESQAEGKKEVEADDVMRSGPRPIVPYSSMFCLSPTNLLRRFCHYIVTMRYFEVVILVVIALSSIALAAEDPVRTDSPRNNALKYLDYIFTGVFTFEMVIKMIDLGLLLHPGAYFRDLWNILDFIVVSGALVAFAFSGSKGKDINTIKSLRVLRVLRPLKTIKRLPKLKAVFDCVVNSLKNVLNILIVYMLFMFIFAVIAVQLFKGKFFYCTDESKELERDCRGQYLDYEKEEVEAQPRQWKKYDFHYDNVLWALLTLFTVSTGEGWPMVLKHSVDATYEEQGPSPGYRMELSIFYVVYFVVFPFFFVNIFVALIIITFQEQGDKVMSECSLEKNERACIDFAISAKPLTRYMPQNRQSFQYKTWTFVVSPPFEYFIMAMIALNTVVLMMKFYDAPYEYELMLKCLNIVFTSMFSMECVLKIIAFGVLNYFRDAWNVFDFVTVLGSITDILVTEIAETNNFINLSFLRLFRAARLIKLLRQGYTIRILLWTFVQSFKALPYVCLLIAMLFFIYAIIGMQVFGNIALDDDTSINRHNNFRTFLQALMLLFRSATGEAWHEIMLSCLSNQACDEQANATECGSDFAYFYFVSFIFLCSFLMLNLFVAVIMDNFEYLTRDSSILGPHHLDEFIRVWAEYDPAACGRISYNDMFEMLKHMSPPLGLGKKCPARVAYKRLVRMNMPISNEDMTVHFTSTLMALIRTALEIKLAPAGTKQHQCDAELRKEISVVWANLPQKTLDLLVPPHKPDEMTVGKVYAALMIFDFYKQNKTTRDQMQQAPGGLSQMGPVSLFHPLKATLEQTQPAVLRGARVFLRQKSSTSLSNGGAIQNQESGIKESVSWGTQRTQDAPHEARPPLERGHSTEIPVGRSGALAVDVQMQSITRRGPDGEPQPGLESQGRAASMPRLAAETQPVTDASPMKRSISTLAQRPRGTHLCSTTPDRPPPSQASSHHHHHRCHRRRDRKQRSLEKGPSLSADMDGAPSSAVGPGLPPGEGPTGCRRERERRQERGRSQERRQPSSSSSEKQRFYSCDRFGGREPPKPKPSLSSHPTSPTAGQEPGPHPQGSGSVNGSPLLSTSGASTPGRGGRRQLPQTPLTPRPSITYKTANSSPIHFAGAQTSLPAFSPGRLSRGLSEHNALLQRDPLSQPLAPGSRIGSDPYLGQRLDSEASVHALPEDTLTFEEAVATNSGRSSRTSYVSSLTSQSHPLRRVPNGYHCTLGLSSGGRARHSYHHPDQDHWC
# human Cav2.2, sequence (P54289 25-956 partner limits assumed): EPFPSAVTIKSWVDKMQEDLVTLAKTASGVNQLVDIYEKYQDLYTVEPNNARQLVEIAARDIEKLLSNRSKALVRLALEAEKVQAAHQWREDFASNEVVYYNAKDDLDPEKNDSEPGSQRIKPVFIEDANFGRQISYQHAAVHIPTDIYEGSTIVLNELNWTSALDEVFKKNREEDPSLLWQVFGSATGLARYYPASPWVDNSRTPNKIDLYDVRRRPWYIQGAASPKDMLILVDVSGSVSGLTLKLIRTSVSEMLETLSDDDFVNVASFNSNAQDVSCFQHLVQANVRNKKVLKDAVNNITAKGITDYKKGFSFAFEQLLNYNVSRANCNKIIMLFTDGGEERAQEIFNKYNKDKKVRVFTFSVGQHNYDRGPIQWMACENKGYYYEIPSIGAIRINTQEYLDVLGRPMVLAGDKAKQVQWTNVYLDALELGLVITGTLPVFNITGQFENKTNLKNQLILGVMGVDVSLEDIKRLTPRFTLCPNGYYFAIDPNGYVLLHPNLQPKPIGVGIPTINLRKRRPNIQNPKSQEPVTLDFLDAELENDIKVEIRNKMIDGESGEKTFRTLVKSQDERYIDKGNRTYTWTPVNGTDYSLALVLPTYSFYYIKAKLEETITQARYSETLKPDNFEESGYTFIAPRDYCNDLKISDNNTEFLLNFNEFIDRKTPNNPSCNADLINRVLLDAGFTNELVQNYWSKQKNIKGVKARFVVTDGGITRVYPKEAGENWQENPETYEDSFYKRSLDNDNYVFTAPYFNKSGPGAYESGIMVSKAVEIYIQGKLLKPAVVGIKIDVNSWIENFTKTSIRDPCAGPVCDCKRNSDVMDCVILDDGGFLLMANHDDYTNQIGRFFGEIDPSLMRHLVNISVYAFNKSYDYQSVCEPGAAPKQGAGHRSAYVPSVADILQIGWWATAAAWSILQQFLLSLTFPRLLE
# human Cav2.2, sequence (P54289 957-1103 partner limits assumed): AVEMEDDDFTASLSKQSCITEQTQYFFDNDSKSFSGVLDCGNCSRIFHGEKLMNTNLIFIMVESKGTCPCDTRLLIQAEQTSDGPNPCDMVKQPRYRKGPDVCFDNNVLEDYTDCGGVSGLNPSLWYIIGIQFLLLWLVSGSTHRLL
# human Cav2.2, sequence (P54284 whole entry partner): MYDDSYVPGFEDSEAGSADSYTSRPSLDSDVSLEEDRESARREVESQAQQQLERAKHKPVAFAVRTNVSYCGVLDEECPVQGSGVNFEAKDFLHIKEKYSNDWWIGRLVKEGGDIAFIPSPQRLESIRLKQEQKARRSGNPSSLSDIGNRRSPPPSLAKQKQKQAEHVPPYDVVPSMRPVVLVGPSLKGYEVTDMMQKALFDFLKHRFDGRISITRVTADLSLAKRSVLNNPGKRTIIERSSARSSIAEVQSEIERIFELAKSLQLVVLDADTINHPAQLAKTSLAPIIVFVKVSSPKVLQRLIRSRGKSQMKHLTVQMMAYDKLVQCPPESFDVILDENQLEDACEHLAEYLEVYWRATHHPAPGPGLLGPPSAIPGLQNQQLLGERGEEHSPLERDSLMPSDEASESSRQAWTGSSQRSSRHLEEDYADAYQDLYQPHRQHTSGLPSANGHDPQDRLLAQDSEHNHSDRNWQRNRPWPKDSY
row,Compound,IC50 [µM]
1,"O=C(N[C@H]1CC[C@@H]2CN(c3csc(C(F)F)c3)C[C@@H]21)[C@@H]1C[C@@H](F)CN1 [Example 655, (4R)-N-{(3aR,4S,6aS)-2-[5-(difluoromethyl)-3-thienyl]octahydrocyclopenta[c]pyrrol-4-yl}-4-fluoro-L-prolinamide]",19.6
2,"CC(C)(C)[C@H](N)C(=O)N[C@H]1CC[C@@H]2CN(Cc3ccccc3)C[C@@H]21 [Example 357, N^1-[(3aR,4S,6aS)-2-benzyloctahydrocyclopenta[c]pyrrol-4-yl]-3-methyl-L-valinamide]",> 30
3,"Cc1n[nH]cc1CN[C@H]1CC[C@@H]2CN(c3cccc(C(F)(F)F)n3)C[C@@H]21 [Example 695, (3aR,4S,6aS)-N-[(3-methyl-1H-pyrazol-4-yl)methyl]-2-[6-(trifluoromethyl)pyridin-2-yl]octahydrocyclopenta[c]pyrrol-4-amine]",2.55
4,"Fc1cnc2[nH]cc(CN[C@H]3CC[C@@H]4CN(c5cccc(C(F)(F)F)n5)C[C@@H]43)c2c1 [Example 690, (3aR,4S,6aS)-N-[(5-fluoro-1H-pyrrolo[2,3-b]pyridin-3-yl)methyl]-2-[6-(trifluoromethyl)pyridin-2-yl]octahydrocyclopenta[c]pyrrol-4-amine]",0.75
5,"O=C(N[C@H]1CC[C@@H]2CN(c3cccc(C(F)(F)F)n3)C[C@@H]21)[C@@H]1CC(F)(F)CN1 [Example 595, 4,4-difluoro-N-{(3aR,4S,6aS)-2-[6-(trifluoromethyl)pyridin-2-yl]octahydrocyclopenta[c]pyrrol-4-yl}-L-prolinamide]",2.18
6,"CN[C@H](C(=O)N[C@H]1CC[C@@H]2CN(c3ccc(C(F)(F)F)cc3)C[C@@H]21)[C@H](C)O [Example 750, N^2-methyl-N-{(3aR,4S,6aS)-2-[4-(trifluoromethyl)phenyl]octahydrocyclopenta[c]pyrrol-4-yl}-L-allothreoninamide]",> 3
7,"COc1ccccc1N1C[C@H]2CC[C@H](NC(=O)[C@@H]3C[C@@H](F)CN3)[C@H]2C1 [Example 662, (4R)-4-fluoro-N-[(3aR,4S,6aS)-2-(2-methoxyphenyl)octahydrocyclopenta[c]pyrrol-4-yl]-L-prolinamide]",> 30
8,"O=C(N[C@H]1CC[C@@H]2CN(c3cccc(C(F)(F)F)n3)C[C@@H]21)c1ccc(F)c(Cl)c1 [Example 566, 3-chloro-4-fluoro-N-{(3aR,4S,6aS)-2-[6-(trifluoromethyl)pyridin-2-yl]octahydrocyclopenta[c]pyrrol-4-yl}benzamide]",0.81
9,"O=C(N[C@H]1CC[C@@H]2CN(c3ccc(C(F)(F)F)cn3)C[C@@H]21)[C@@H]1C[C@@H]2CCCC[C@@H]2N1 [Example 603, (2S,3aS,7aS)-N-{(3aR,4S,6aS)-2-[5-(trifluoromethyl)pyridin-2-yl]octahydrocyclopenta[c]pyrrol-4-yl}octahydro-1H-indole-2-carboxamide]",2.22
10,"CN[C@@H](CC(C)C)C(=O)N[C@H]1CC[C@@H]2CN(c3ccc(F)c(Cl)c3)C[C@@H]21 [Example 773, N-[(3aR,4S,6aS)-2-(3-chloro-4-fluorophenyl)octahydrocyclopenta[c]pyrrol-4-yl]-N^2-methyl-L-leucinamide]",1.79
11,"CN[C@@H](CC(C)C)C(=O)N[C@H]1CC[C@@H]2CN(c3cccc(C(F)(F)F)n3)C[C@@H]21 [Example 590, N^2-methyl-N-{(3aR,4S,6aS)-2-[6-(trifluoromethyl)pyridin-2-yl]octahydrocyclopenta[c]pyrrol-4-yl}-L-leucinamide]",0.45
12,"O=C(N[C@H]1CC[C@H]2CN(Cc3cccc(C(F)(F)F)c3)C[C@H]21)C(O)C1CCCCC1 (stereo partly drawn) [Example 237, 2-cyclohexyl-2-hydroxy-N-{(3aS,4S,6aR)-2-[3-(trifluoromethyl)benzyl]octahydrocyclopenta[c]pyrrol-4-yl}acetamide]",1.46
13,"CN[C@@H](CC(C)C)C(=O)N[C@H]1CC[C@@H]2CN(c3ccc(C(F)(F)F)nn3)C[C@@H]21 [Example 724, N^2-methyl-N-{(3aR,4S,6aS)-2-[6-(trifluoromethyl)pyridazin-3-yl]octahydrocyclopenta[c]pyrrol-4-yl}-L-leucinamide]",22.3
14,"O=C(N[C@H]1CC[C@@H]2CN(c3cccc(C(F)(F)F)n3)C[C@@H]21)c1cccc(O)c1 [Example 577, 3-hydroxy-N-{(3aR,4S,6aS)-2-[6-(trifluoromethyl)pyridin-2-yl]octahydrocyclopenta[c]pyrrol-4-yl}benzamide]",2.06

# Results, then the compound that gave them:
row,IC50 [µM],Compound
1,1.45,"CN[C@@H](CC(C)C)C(=O)N[C@@H]1CC[C@H]2CN(S(=O)(=O)c3cccc(C(F)(F)F)c3)C[C@H]21 [Example 182, N^2-methyl-N^1-((3aS,4R,6aR)-2-{[3-(trifluoromethyl)phenyl]sulfonyl}octahydrocyclopenta[c]pyrrol-4-yl)-L-leucinamide]"
2,0.95,"CC(C)(C)C[C@H](N)C(=O)N[C@H]1CC[C@@H]2CN(S(=O)(=O)c3cccc(C(F)(F)F)c3)C[C@@H]21 [Example 392, 4-methyl-N^1-((3aR,4S,6aS)-2-{[3-(trifluoromethyl)phenyl]sulfonyl}octahydrocyclopenta[c]pyrrol-4-yl)-L-leucinamide]"
3,3.34,"CN[C@@H](CC(C)C)C(=O)N[C@H]1CC[C@@H]2CN(c3ccccc3C)C[C@@H]21 [Example 630, N^2-methyl-N-[(3aR,4S,6aS)-2-(2-methylphenyl)octahydrocyclopenta[c]pyrrol-4-yl]-L-leucinamide]"
4,0.63,"CN[C@@H](CC(C)C)C(=O)N[C@H]1CC[C@@H]2CN(c3ncc(C(F)(F)F)cc3Br)C[C@@H]21 [Example 766, N-{(3aR,4S,6aS)-2-[3-bromo-5-(trifluoromethyl)pyridin-2-yl]octahydrocyclopenta[c]pyrrol-4-yl}-N^2-methyl-L-leucinamide]"
5,2.16,"CN(C)[C@@H](CC1CC1)C(=O)N[C@H]1CC[C@@H]2CN(c3ccc(OC(F)(F)F)cc3)C[C@@H]21 [Example 777, 3-cyclopropyl-N^2,N^2-dimethyl-N-{(3aR,4S,6aS)-2-[4-(trifluoromethoxy)phenyl]octahydrocyclopenta[c]pyrrol-4-yl}-L-alaninamide]"
6,> 30,"CCCC[C@H](NC)C(=O)N[C@H]1CC[C@@H]2CN(Cc3ccccc3)C[C@@H]21 [Example 362, N^1-[(3aR,4S,6aS)-2-benzyloctahydrocyclopenta[c]pyrrol-4-yl]-N^2-methyl-L-norleucinamide]"
7,4,"FC(F)(F)c1cccc(N2C[C@H]3CC[C@H](NCc4c[nH]nn4)[C@H]3C2)n1 [Example 694, (3aR,4S,6aS)-N-(1H-1,2,3-triazol-4-ylmethyl)-2-[6-(trifluoromethyl)pyridin-2-yl]octahydrocyclopenta[c]pyrrol-4-amine]"
8,0.69,"Fc1ccc2[nH]cc(CN[C@H]3CC[C@@H]4CN(c5cccc(C(F)(F)F)n5)C[C@@H]43)c2c1 [Example 678, (3aR,4S,6aS)-N-[(5-fluoro-1H-indol-3-yl)methyl]-2-[6-(trifluoromethyl)pyridin-2-yl]octahydrocyclopenta[c]pyrrol-4-amine]"
9,8.26,"O=C(N[C@H]1CC[C@@H]2CN(c3ccc(C(F)(F)F)cc3)C[C@@H]21)[C@@H]1C[C@@H](F)CN1 [Example 781, (4R)-4-fluoro-N-{(3aR,4S,6aS)-2-[4-(trifluoromethyl)phenyl]octahydrocyclopenta[c]pyrrol-4-yl}-L-prolinamide]"
10,> 30,"CC(C)CC(=O)N[C@@H]1CC[C@H]2CN(Cc3ccccc3)C[C@H]21 [Example 236, N-[(3aS,4R,6aR)-2-benzyloctahydrocyclopenta[c]pyrrol-4-yl]-3-methylbutanamide]"
11,3.35,"O=S(=O)(N[C@H]1CC[C@@H]2CN(c3cccc(C(F)(F)F)n3)C[C@@H]21)c1ccccc1 [Example 708, N-{(3aR,4S,6aS)-2-[6-(trifluoromethyl)pyridin-2-yl]octahydrocyclopenta[c]pyrrol-4-yl}benzenesulfonamide]"
12,2.24,"O=C(N[C@H]1CC[C@@H]2CN(c3cccc(C(F)(F)F)n3)C[C@@H]21)c1cc2cc(F)ccc2[nH]1 [Example 697, 5-fluoro-N-{(3aR,4S,6aS)-2-[6-(trifluoromethyl)pyridin-2-yl]octahydrocyclopenta[c]pyrrol-4-yl}-1H-indole-2-carboxamide]"

# Same assay, conditions: read-out: IC50 (μM) or percent inhibition (* indicates 3 minute incubation, otherwise 60 minute); IC50; 60 minute pre-incubation with compound; IMR32 cells, 80 mM KCl depolarization
row,Compound,IC50 [µM]
1,"O=C(N[C@@H]1CC[C@H]2CN(Cc3cccc(C(F)(F)F)c3)C[C@H]21)C(c1ccc(F)cc1)c1ccc(F)cc1 (relative stereo) [Example 146, 2,2-bis(4-fluorophenyl)-N-{(3aS*,4R*,6aR*)-2-[3-(trifluoromethyl)benzyl]octahydrocyclopenta[c]pyrrol-4-yl}acetamide]",0.79
2,"CC(C)C(C(=O)N[C@H]1CC[C@H]2CN(Cc3ccccc3)C[C@H]21)c1ccccc1 (stereo partly drawn) [Example 14, N-[(3aS,4S,6aR)-2-benzyloctahydrocyclopenta[c]pyrrol-4-yl]-3-methyl-2-phenylbutanamide]",3.79

# Continued, values first:
row,IC50 [µM],Compound
1,2.27,"O=S(=O)(N[C@@H]1CC[C@H]2CN(Cc3cc(C(F)(F)F)cc(C(F)(F)F)c3)C[C@H]21)c1cccc(C(F)(F)F)c1 [Example 192, N-{(3aS,4R,6aR)-2-[3,5-bis(trifluoromethyl)benzyl]octahydrocyclopenta[c]pyrrol-4-yl}-3-(trifluoromethyl)benzenesulfonamide]"
2,1.63,"CC(C)C(C(=O)N[C@H]1CC[C@@H]2CN(Cc3cccc(Cl)c3)C[C@@H]21)c1ccccc1 (stereo partly drawn) [Example 86, N-[(3aR,4S,6aS)-2-(3-chlorobenzyl)octahydrocyclopenta[c]pyrrol-4-yl]-3-methyl-2-phenylbutanamide]"
3,3.26,"CC(C)C(C(=O)N[C@H]1CC[C@@H]2CN(Cc3ccccc3)C[C@@H]21)c1ccccc1 (stereo partly drawn) [Example 35, N-[(3aR,4S,6aS)-2-benzyloctahydrocyclopenta[c]pyrrol-4-yl]-3-methyl-2-phenylbutanamide]"
4,8.99,CN(C(=O)OC(C)(C)C)[C@@H](CC(C)(C)C)C(=O)N(CC1CC1)[C@H]1CC[C@@H]2CN(S(=O)(=O)c3ccc(C(F)(F)F)cc3)C[C@@H]21 [Example 298]

# Reference: patent US8691865B2 (AbbVie Inc., priority 2008, dated 2014)
